The numbers were not newly measured in patent US7671089B2 (XenoPort, Inc., priority 2004, dated 2010), which cites them from elsewhere.

Structures are written as SMILES.

The conditions of series [1]: rats.
For series [2] the following is noted: following oral administration.

For `C[C@@](Cc1ccc(O)c(O)c1)(NN)C(=O)O` [carbidopa], the “absorption following rectal administration” value in series [1] is listed as “poor”.
For the compound `CC(C)(C)C(=O)Oc1ccc(C[C@H](N)C(=O)O)cc1O` [NB-355], in series [2], the duration time result is reported as “prolonged” and the levels of levodopa entry was “low”.
